The record followed here is US20240376094A2, “SELECTIVE BCL-XL PROTAC COMPOUNDS AND METHODS OF USE” (Les Laboratoires Servier, priority 2021, published 2024).

Molecules are shown by their SMILES. pIC50: −log10 of the molar value.

Common to all, as to type: cell-based
In experiment [1] the test system is MOLT-4 cells. Briefly: MOLT-4 cell viability, MTT assay. The following applies: Homo sapiens, MOLT-4, 48 h. In a few lines:
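MOLT-4 cells in RPMI 1640 with 10% FBS were exposed to compounds for 48 h at 9 concentrations (3.16-fold dilutions, triplicates). After 4 h with MTT and overnight SDS/HCl solubilisation, absorbance was read at 540 nm. IC50 came from four-parameter fits versus control, as the mean of ≥2 independent experiments.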
Background: Formazan colour is commonly taken as a measure of viable cells.

Experiment [2] concerns the target T1, Bcl-xL (Homo sapiens, UniProt Q07817).
T1 construct: Measured levels of Bcl-xL protein of HCT116 cells treated with the tested compounds; host or cells: HCT116
Briefly: HCT116 Bcl-xL degradation, capillary-based immunoassay (WES). Particulars: for DC50: HCT116, 24 h, 9-point serial dilution; for remaining activity at 0.01 µM / remaining activity at 0.1 µM: HCT-116, 24 h, % of untreated cells; for remaining activity at 0.01 µM: HCT116, 10 nM; for remaining activity at 0.1 µM: HCT116, 100 nM. Summed up: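 Bcl-xL protein level by capillary WES immunoassay in HCT116 lysates, as % of untreated after cofilin normalization. Compound exposure was 24 h at 10 and 100 nM and/or a 9-point series, in quadruplicate. Four-parameter fitting gave the DC50.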

For experiment [3], the system named is EBC-1 lung cancer cell line. Nature of the experiment: EBC-1 cell proliferation, CellTiter-Glo assay. Particulars: Homo sapiens, 120 h; Ebc-1 cell viability, CTG assay, 5 days of treatment; read-out: CTG 5 day Ebc1 GI50. In a few lines: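 CellTiter-Glo read-out after 5-day compound treatment, normalised to untreated cells, with GI50 derived by four-parameter logistic regression. Ten concentrations spanning 0.508 nM–10 μM were added to 1000 EBC-1 cells per well the day after seeding. Assays required at least one cell doubling versus Day 0.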
(In general: ATP-based viability assays read luminescence as a measure of living cells.)

Experiment [4] has as its target T2, HiBiT-tagged BCL-xL (Homo sapiens, UniProt Q07817).
T2 construct: expressed in transfected cells; host or cells: NCI-H1650 (ATCC No. CRL-5883), engineered HiBiT cell line
Nature of the experiment: NCI-H1650 BCL-xL protein levels, Nano-Glo HiBiT Lytic Detection. The following applies: NCI-H1650 expressing HiBiT-tagged BCL-xL, overnight incubation, read-out: Bcl-xl HIBIT NCIH1650 DC50. In a few lines: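 HiBiT luminescence after cell lysis with LgBiT/furimazine reagent reported BCL-xL levels, expressed relative to untreated wells and fitted with a four-parameter logistic equation. Engineered NCI-H1650 cells were exposed overnight at 37° C to compound at final 0.508 nM-10 μM (10 points, triplicate plates).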
A general note: The HiBiT peptide binds its large partner to form an active luciferase.

T1 sequence (Q07817 whole entry): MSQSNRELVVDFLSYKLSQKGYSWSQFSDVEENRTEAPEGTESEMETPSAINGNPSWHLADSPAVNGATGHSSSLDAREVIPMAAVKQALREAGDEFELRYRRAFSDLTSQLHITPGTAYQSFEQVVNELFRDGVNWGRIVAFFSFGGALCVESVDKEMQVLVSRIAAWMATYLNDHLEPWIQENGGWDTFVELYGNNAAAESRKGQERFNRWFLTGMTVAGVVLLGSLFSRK
T2 sequence (Q07817 whole entry): as above

`Cc1ncsc1-c1ccc([C@H](C)NC(=O)[C@@H]2C[C@@H](O)CN2C(=O)[C@@H](NC(=O)CCCCCCCCCCCN(C)CCOC23CC4(C)CC(C)(CC(Cn5ncc(-c6ccc(N7CCCc8c7nnc(Nc7nc9ccccc9s7)c8C)nc6C(=O)O)c5C)(C4)C2)C3)C(C)(C)C)cc1` [Example 2, 6-[3-(1,3-benzothiazol-2-ylamino)-4-methyl-6,7-dihydro-5H-pyrido[2,3-c]pyridazin-8-yl]-3-[1-[[3-[2-[[12-[[(1S)-1-[(2S,4R)-4-hydroxy-2-[[(1S)-1-[4-(4-methylthiazol-5-yl)phenyl]ethyl]carbamoyl]pyrrolidine-1-carbonyl]-2,2-dimethyl-propyl]amino]-12-oxo-dodecyl]-methyl-amino]ethoxy]-5,7-dimethyl-1-adamantyl]methyl]-5-methyl-pyrazol-4-yl]pyridine-2-carboxylic acid] gave a negative logarithm of the IC50 (pIC50) in experiment [1] of 8.97. Besides, in experiment [2], the DC50 stood at 0.286 nM, the remaining activity at 0.01 µM was 26% and the remaining activity at 0.1 µM was 11%. In experiment [3], the GI50 is 13 nM. Also, the DC50 in experiment [4] came out at 1 nM.
The molecule `Cc1ncsc1-c1ccc([C@H](C)NC(=O)[C@@H]2CC(O)CN2C(=O)[C@@H](NC(=O)CCCCCCCCCCCCCCN(C)CCOC23CC4(C)CC(C)(CC(Cn5ncc(-c6ccc(N7CCCc8c7nnc(Nc7nc9ccccc9s7)c8C)nc6C(=O)O)c5C)(C4)C2)C3)C(C)(C)C)cc1` (stereo in doubt) [Example 7, 6-[3-(1,3-benzothiazol-2-ylamino)-4-methyl-6,7-dihydro-5H-pyrido[2,3-c]pyridazin-8-yl]-3-[1-[[3-[2-[[15-[[(1S)-1-[(2S,4R)-4-hydroxy-2-[[(1S)-1-[4-(4-methylthiazol-5-yl)phenyl]ethyl]carbamoyl]pyrrolidine-1-carbonyl]-2,2-dimethyl-propyl]amino]-15-oxo-pentadecyl]-methyl-amino]ethoxy]-5,7-dimethyl-1-adamantyl]methyl]-5-methyl-pyrazol-4-yl]pyridine-2-carboxylic acid] gave a pIC50 in experiment [1] of 9.31. Also, in experiment [2], the DC50 was found to be 0.742 nM, the remaining activity at 0.01 µM was 52% and the remaining activity at 0.1 µM stood at 34%. Besides, the GI50 in experiment [3] is 2 nM. Besides, in experiment [4], the DC50 is 1 nM.
In turn, `Cc1ncsc1-c1ccc([C@H](C)NC(=O)C2C[C@@H](O)CN2C(=O)C(NC(=O)CCCCCC(=O)N2CCN(CC#Cc3ccc(OCCCc4sc(N5CCCc6c5nnc(Nc5nc7ccccc7s5)c6C)nc4C(=O)O)c(F)c3)CC2)C(C)(C)C)cc1` (stereo in doubt) [Example 17, 2-[3-(1,3-benzothiazol-2-ylamino)-4-methyl-6,7-dihydro-5H-pyrido[2,3-c]pyridazin-8-yl]-5-[3-[2-fluoro-4-[3-[4-[7-[[(1S)-1-[(2S,4R)-4-hydroxy-2-[[(1S)-1-[4-(4-methylthiazol-5-yl)phenyl]ethyl]carbamoyl]pyrrolidine-1-carbonyl]-2,2-dimethyl-propyl]amino]-7-oxo-heptanoyl]piperazin-1-yl]prop-1-ynyl]phenoxy]propyl] thiazole-4-carboxylic acid] showed a pIC50 in experiment [1] of 8.42. Further, in experiment [2], the DC50 stood at 0.488 nM, the remaining activity at 0.01 µM came out at 32% and the remaining activity at 0.1 µM was 9%. For the same molecule, the GI50 in experiment [3] is 31 nM. Besides, in experiment [4], the DC50 is more than 1670 nM.
On to `Cc1ncsc1-c1ccc(CNC(=O)[C@@H]2C[C@@H](O)CN2C(=O)[C@@H](NC(=O)C2(F)CC2)C(C)(C)C)c(OCCCCCCCCN(C)CCOC23CC4(C)CC(C)(CC(Cn5ncc(-c6ccc(N7CCCc8c7nnc(Nc7nc9ccccc9s7)c8C)nc6C(=O)O)c5C)(C4)C2)C3)c1` [Example 138, 6-[3-(1,3-benzothiazol-2-ylamino)-4-methyl-6,7-dihydro-5H-pyrido[2,3-c]pyridazin-8-yl]-3-[1-[[3-[2-[8-[2-[[[(2S,4R)-1-[(2S)-2-[(1-fluorocyclopropanecarbonyl)amino]-3,3-dimethyl-butanoyl]-4-hydroxy-pyrrolidine-2-carbonyl]amino]methyl]-5-(4-methylthiazol-5-yl)phenoxy]octyl-methyl-amino]ethoxy]-5,7-dimethyl-1-adamantyl]methyl]-5-methyl-pyrazol-4-yl]pyridine-2-carboxylic acid], for which the pIC50 in experiment [1] is 8.48. Moreover, the DC50 in experiment [2] was 21.2 nM; in experiment [4], more than 1670 nM.
Regarding `Cc1ncsc1-c1ccc([C@H](C)NC(=O)C2C[C@@H](O)CN2C(=O)C(NC(=O)CCCCCCC(=O)N2CCN(CC#Cc3ccc(OCCCc4sc(N5CCCc6c5nnc(Nc5nc7ccccc7s5)c6C)nc4C(=O)O)c(F)c3)CC2)C(C)(C)C)cc1` (stereo in doubt) [Example 16, 2-[3-(1,3-benzothiazol-2-ylamino)-4-methyl-6,7-dihydro-5H-pyrido[2,3-c]pyridazin-8-yl]-5-[3-[2-fluoro-4-[3-[4-[8-[[(1S)-1-[(2S,4R)-4-hydroxy-2-[[(1S)-1-[4-(4-methylthiazol-5-yl)phenyl]ethyl]carbamoyl]pyrrolidine-1-carbonyl]-2,2-dimethyl-propyl]amino]-8-oxo-octanoyl]piperazin-1-yl]prop-1-ynyl]phenoxy]propyl]thiazole-4-carboxylic acid], in experiment [1], the negative-log IC50 (pIC50) was 8.97. In experiment [2], the DC50 came to 0.47 nM, the remaining activity at 0.01 µM turned out to be 7% and the remaining activity at 0.1 µM turned out to be 7%. Besides, the GI50 in experiment [3] is 9 nM. For the same molecule, in experiment [4], the DC50 was found to be 3 nM.
For the molecule `Cc1ncsc1-c1ccc([C@H](C)NC(=O)[C@@H]2C[C@@H](O)CN2C(=O)[C@@H](NC(=O)CCCCCCN(C)CCOC23CC4(C)CC(C)(CC(Cn5ncc(-c6ccc(N7CCCc8c7nnc(Nc7nc9ccccc9s7)c8C)nc6C(=O)O)c5C)(C4)C2)C3)C(C)(C)C)cc1` [Example 3, 6-[3-(1,3-benzothiazol-2-ylamino)-4-methyl-6,7-dihydro-5H-pyrido[2,3-c]pyridazin-8-yl]-3-[1-[[3-[2-[[7-[[(1S)-1-[(2S,4R)-4-hydroxy-2-[[(1S)-1-[4-(4-methylthiazol-5-yl)phenyl]ethyl]carbamoyl]pyrrolidine-1-carbonyl]-2,2-dimethyl-propyl]amino]-7-oxo-heptyl]-methyl-amino]ethoxy]-5,7-dimethyl-1-adamantyl]methyl]-5-methyl-pyrazol-4-yl]pyridine-2-carboxylic acid], the pIC50 in experiment [1] is 7.49. In experiment [2], the DC50 worked out at 4.21 nM, the remaining activity at 0.01 µM was found to be 23% and the remaining activity at 0.1 µM came to 17%. For the same molecule, the GI50 in experiment [3] was 9 nM. Moreover, the DC50 in experiment [4] was 3 nM.
The molecule `Cc1ncsc1-c1ccc(CNC(=O)[C@@H]2C[C@@H](O)CN2C(=O)[C@@H](NC(=O)CCCCC(=O)N2CCN(CC#Cc3ccc(OCCCc4sc(N5CCCc6c5nnc(Nc5nc7ccccc7s5)c6C)nc4C(=O)O)c(F)c3)CC2)C(C)(C)C)cc1` [Example 19, 2-[3-(1,3-benzothiazol-2-ylamino)-4-methyl-6,7-dihydro-5H-pyrido[2,3-c]pyridazin-8-yl]-5-[3-[2-fluoro-4-[3-[4-[6-[[(1S)-1-[(2S,4R)-4-hydroxy-2-[[4-(4-methylthiazol-5-yl)phenyl]methylcarbamoyl]pyrrolidine-1-carbonyl]-2,2-dimethyl-propyl]amino]-6-oxo-hexanoyl]piperazin-1-yl]prop-1-ynyl]phenoxy]propyl]thiazole-4-carboxylic acid] gave a pIC50 in experiment [1] of 7.88. In experiment [2], the remaining activity at 0.01 µM turned out to be 104% and the remaining activity at 0.1 µM is 88%. For the same molecule, in experiment [3], the GI50 is 25 nM. For the same molecule, the DC50 in experiment [4] was more than 1670 nM.
As for `Cc1cc(N(CCCCCn2cc(CCCCCCCCC(=O)N[C@H](C(=O)N3C[C@H](O)C[C@H]3C(=O)NCc3ccc(-c4scnc4C)cc3)C(C)(C)C)nn2)c2ccc(-c3cnn(CC45CC6(C)CC(C)(C4)CC(OCCN(C)C)(C6)C5)c3C)c(C(=O)O)n2)nnc1Nc1nc2ccccc2s1` [Example 152, 6-[[6-(1,3-benzothiazol-2-ylamino)-5-methyl-pyridazin-3-yl]-[5-[4-[9-[[(1S)-1-[(2S,4R)-4-hydroxy-2-[[4-(4-methylthiazol-5-yl)phenyl]methylcarbamoyl]pyrrolidine-1-carbonyl]-2,2-dimethyl-propyl]amino]-9-oxo-nonyl]triazol-1-yl]pentyl]amino]-3-[1-[[3-[2-(dimethylamino)ethoxy]-5,7-dimethyl-1-adamantyl]methyl]-5-methyl-pyrazol-4-yl]pyridine-2-carboxylic acid], the pIC50 in experiment [1] is 7.09. The figures for the DC50 in experiment [2] and in experiment [4] were 11.4 nM and more than 1670 nM, respectively. Also, in experiment [3], the GI50 stood at 121 nM.

By pIC50 is commonly meant the negative decadic logarithm of the IC50, by convention in mol/L. The low end stands for a large IC50, the high end for a small IC50. The remaining activity is the signal under treatment as a percentage of the control signal. One may read the GI50 as the concentration giving 50% growth inhibition.
